From patent publication US12207655B2, “Protoporphyrin IX derivatives and use thereof to improve the health of plants” (priority 2019, dated 2025)

What was measured:
[1] = system: Pseudomonas syringae pv. tabaci; experiment: Photodynamic control of Pseudomonas syringae pv. tabaci in PBS, colony counts after illumination; format: cell-based; details: 30 min dark then 1 hour illumination (about 1000 μmol/m2/s PAR), PBS control 8.7
Method: In this example, control of the gram-negative bacterial plant pathogen Pseudomonas syringae pv. tabaci with PP IX and modified PP IX was assessed, with and without chelating agents. Treatments were prepared in Phosphate Buffered Saline (PBS) in 96 well plates at desired concentrations. A bacterial suspension was inoculated into the PBS and incubated at 28° C. in the dark for 30 minutes. After 30 minutes, the 96 well plate was placed under illumination for 1 hour (at 21° C.). Following illumination, bacterial suspensions were serially diluted and 10 μL of each dilution is spread uniformly on Tryptic Soy Agar (TSA) plates and placed in the dark in an incubator at 28° C. for 48 hours. After 48 hours, bacterial colonies were counted, and the results were log transformed (log colony forming units (CFU)/mL). The relative inactivation was determined by taking the difference between log CFU (PBS control) and log CFU (treatments). Sample Illumination was provided by LED lights (Heliospectra RX30) emitting about 1000 μmol/m^2/s photosynthetically active radiation (PAR).

Sclerotinia homoeocarpa = experiment: Control of dollar spot fungus: radial growth of fungal plugs on PDA after treatment in PBS, dark vs light; format: cell-based; details: 31 μM + 0.21% BrijO10:ArlasolveDMI (1:4); for Mean Radial Growth: growth between 24 and 48 hours at 21° C; for % Inhibition: relative to non-amended control
Method: In this example, control of dollar spot fungus (Sclerotinia homoeocarpa) with PP IX and modified PP IX was assessed. Treatments were prepared in Phosphate Buffered Saline (PBS) in 24 well plates (in duplicates for light vs. dark incubation) at desired concentrations. Then, a 5 mm diameter plug of a Sclerotinia homoeocarpa isolate (3 isolates total tested) was inoculated into the PBS and incubated at 21° C. in the dark for 2 hours. After 2 hours, one of the 24 well plates (with isolates in triplicate) was left in the dark and one 24 well plate was placed under illumination for 1 hour (all at […]). Following illumination, fungal plugs were removed from PBS, blotted dry on sterile filter paper and transferred to non-amended Potato Dextrose Agar (PDA). Radial growth of the fungus was monitored daily until the growth of S. homoeocarpa reaches the edge of the Petri-dish. Illumination was provided by LED lights emitting about 1000 μmol/m2/s photosynthetically active radiation (PAR).

Protoporphyrin IX disodium salt [PP IX disodium salt]
log CFU/ml ([1]; 10 μM + 5 mM NaEDTA in PBS): 3.8 log CFU/ml | log CFU/ml ([1]; 10 μM in PBS, no chelating agent): 7.4 log CFU/ml | Mean Radial Growth (Sclerotinia homoeocarpa; Dark (no light exposure), PBS control 10.1): 10.5 | % Inhibition (Sclerotinia homoeocarpa; Dark (no light exposure)): −3.8% | Mean Radial Growth (Sclerotinia homoeocarpa; Exposed to light for 1 hour (1000 PAR), PBS control 10.2): 0.0 | % Inhibition (Sclerotinia homoeocarpa; Exposed to light for 1 hour (1000 PAR)): 100.0%
